Source: US10874745B2, “Antimicrobial peptides and methods of treating gram-negative pathogens: polar and non-polar face analogs” (priority 2017, dated 2020)
Values joined by “and” are separate entries in the source; they are usually repeats but may differ in a detail not shown here. Identical values can stand only once. Like-named read-outs stand apart in the source and are kept apart here. Non-standard residues stand in square brackets, D forms with d. Residues, ends and D or L forms follow the SMILES beside them. dDab = NCC[C@@H](N)C(=O)O

How the values were obtained:
[1] = tested on: A. baumannii strains resistant to Polymyxin B and Colistin; assay type: cell-based; conditions: geometric mean, 7 A. baumannii strains resistant to polymyxin B and colistin
Source text: (§2) Gram-Negative Bacterial Strains used in this Study: All the A. baumannii strains used in this study were 1) obtained from the collection of Dr. Anthony A. Campagnari at the University of Buffalo and originally isolated from different patients and organs/tissues (strain 649, blood; strain 689, groin; strain 759, gluteus; strain 884, axilla; strain 985, pleural fluid); 2) were purchased from the American Type Culture Collection (ATCC, Manassas, Va., USA) (strain ATCC 17978, fatal meningitis; and strain ATCC 19606, urine); 3) obtained from MERCK (M89941, M89949, M89951, M89952, M89953, M89955 and M89963). These seven A. baumannii strains were resistant to polymyxin B and polymyxin E (Colistin).
(§3) Measurement of Antimicrobial Activity (MIC): The minimal inhibitory concentration (MIC) is defined as the lowest peptide concentration that inhibited bacterial growth. MICs were measured by a standard microtiter dilution method in Mueller Hinton (MH) medium. Briefly, cells were grown overnight at 37° C. in MH broth and were diluted in the same medium. […] The plates were incubated at 37° C. for 24 h, and the MICs were determined.

[2] = tested on: A. baumannii clinical isolates; test: MIC, microtiter dilution in Mueller Hinton medium; assay type: cell-based; conditions: geometric mean, 7 clinical isolates of A. baumannii
Source text: as §2, §3

[3] = tested on: clinical isolates of Pseudomonas aeruginosa; assay type: cell-based; conditions: geometric mean, 6 clinical isolates of P. aeruginosa
Procedure: as §3

Hemolytic activity = assay type: cell-based, human; conditions: 1% human erythrocytes (red blood cells), pH 7.4
Procedure: (§1) Hemoglobin release was determined spectrophotometrically at 570 nm. […] […] […] With the peptides used in this study the inventors used the HC30/MIC ratio value to calculate the therapeutic index.

human red blood cells = test: Hemolytic activity; assay type: cell-based; conditions: for HC50: 50% hemolysis of human red blood cells after 18 hours at 37° C.
Procedure: as §1

[4] = RP-HPLC retention time as measure of overall peptide hydrophobicity; assay type: physicochemical; conditions: Zorbax SB-C8, 0.5% B/min from 2% B, 30° C. (Table 3)
Source text: Retention behavior in RP-HPLC is an excellent method to represent overall peptide hydrophobicity. Retention times of peptides are highly sensitive to the conformational status of the peptides upon interaction with the hydrophobic environment of the column matrix (Jiang, Z., et al., Chem. Biol. Drug Des. 2011; Chen, Y., et al., J. Peptide Research 2002, supra). The non-polar faces of amphipathic alpha-helical and amphipathic cyclic beta-sheet peptides represent a preferred binding domain for interaction with the hydrophobic matrix of the reversed-phase column (Zhou, N. E., et al., Peptide Research 1990, 3:8-20). In this study, the observed peptide hydrophobicity was determined by RP-HPLC retention time as described in the methods section and are relative hydrophobicities because they are dependent on the TFA concentration and organic solvent in the mobile phase, gradient rate, temperature, flow rate and the column used. […]

[5] = 50% hemolysis of human red blood cells after 18 hours at 37° C., read-out: HC50

Row | Compound | MICGM [1] [µM] | MICGM [2] [µM] | MICGM [3] [µM] | HC50 at 18 h (Hemolytic activity; [5]) | HC50 (human red blood cells) [µM] | tR, relative hydrophilicity/hydrophobicity [4] [min] | HC50 at 18 h (Hemolytic activity; human) | Hemolysis of human red blood cells, in words (human red blood cells)
1 | CC(=O)N[C@H](C)C(=O)N[C@H](CC(C)C)C(=O)N[C@H](CCCCN)C(=O)N[C@H](CCCCN)C(=O)N[C@H](CC(C)C)C(=O)N[C@H](CC(C)C)C(=O)N[C@H](CCCCN)C(=O)N[C@@H](C(=O)N[C@H](CC(C)C)C(=O)N[C@H](CO)C(=O)N[C@H](CCCCN)C(=O)N[C@H](C)C(=O)N[C@H](CCCNC(=N)N)C(=O)N[C@H](C)C(=O)N[C@H](C)C(=O)N[C@H](CCCNC(=N)N)C(=O)N[C@H](CC(C)C)C(=O)N[C@H](CCCCN)C(=O)N[C@@H](C(=O)N[C@H](CC(C)C)C(=O)N[C@H](CC(C)C)C(=O)N[C@H](CCCCN)C(=O)N[C@H](C)C(=O)N[C@H](CC(C)C)C(=O)N[C@H](CO)C(=O)N[C@H](CCCCN)C(N)=O)[C@H](C)O)[C@H](C)O [D41(Arg13/Arg16)] | 0.8 | 0.6 | 1.1 | 7.2 µM and 21 µg/mL | 7.2 |  |  | 
2 | CC(=O)N[C@H](C)C(=O)N[C@H](CC(C)C)C(=O)N[C@H](CCCCN)C(=O)N[C@H](CCCCN)C(=O)N[C@H](CC(C)C)C(=O)N[C@H](CC(C)C)C(=O)N[C@H](CCCCN)C(=O)N[C@@H](C(=O)N[C@H](CC(C)C)C(=O)N[C@H](CO)C(=O)N[C@H](CCCCN)C(=O)N[C@H](C)C(=O)N[C@H](CN)C(=O)N[C@H](C)C(=O)N[C@H](C)C(=O)N[C@H](CN)C(=O)N[C@H](CC(C)C)C(=O)N[C@H](CCCCN)C(=O)N[C@@H](C(=O)N[C@H](CC(C)C)C(=O)N[C@H](CC(C)C)C(=O)N[C@H](CCCCN)C(=O)N[C@H](C)C(=O)N[C@H](CC(C)C)C(=O)N[C@H](CO)C(=O)N[C@H](CCCCN)C(N)=O)[C@H](C)O)[C@H](C)O [D41(Dpr13/Dpr16)] | 0.7 | 0.6 | 1.3 | 22.6 µM and 62.5 µg/mL | 22.6 |  |  | 
3 | CC(=O)N[C@H](C)C(=O)N[C@H](CC(C)C)C(=O)N[C@H](CCCCN)C(=O)N[C@H](CCCCN)C(=O)N[C@H](CC(C)C)C(=O)N[C@H](CC(C)C)C(=O)N[C@H](CCCCN)C(=O)N[C@@H](C(=O)N[C@H](CC(C)C)C(=O)N[C@H](CO)C(=O)N[C@H](CCCCN)C(=O)N[C@H](C)C(=O)N[C@H](CCCN)C(=O)N[C@H](C)C(=O)N[C@H](C)C(=O)N[C@H](CCCN)C(=O)N[C@H](CC(C)C)C(=O)N[C@H](CCCCN)C(=O)N[C@@H](C(=O)N[C@H](CC(C)C)C(=O)N[C@H](CC(C)C)C(=O)N[C@H](CCCCN)C(=O)N[C@H](C)C(=O)N[C@H](CC(C)C)C(=O)N[C@H](CO)C(=O)N[C@H](CCCCN)C(N)=O)[C@H](C)O)[C@H](C)O [D41(Orn13/Orn16)] | 0.6 | 0.8 | 1.0 | 34 µM and 96 µg/mL | 34.0 |  |  | 
4 | CC(=O)N[C@H](C)C(=O)N[C@H](CC(C)C)C(=O)N[C@H](CCCCN)C(=O)N[C@H](CCCCN)C(=O)N[C@H](CC(C)C)C(=O)N[C@H](CC(C)C)C(=O)N[C@H](CCCCN)C(=O)N[C@@H](C(=O)N[C@H](CC(C)C)C(=O)N[C@H](CO)C(=O)N[C@H](CCCCN)C(=O)N[C@H](C)C(=O)N[C@H](CCCCN)C(=O)N[C@H](C)C(=O)N[C@H](C)C(=O)N[C@H](CCCCN)C(=O)N[C@H](CC(C)C)C(=O)N[C@H](CCCCN)C(=O)N[C@@H](C(=O)N[C@H](CC(C)C)C(=O)N[C@H](CC(C)C)C(=O)N[C@H](CCCCN)C(=O)N[C@H](C)C(=O)N[C@H](CC(C)C)C(=O)N[C@H](CO)C(=O)N[C@H](CCCCN)C(N)=O)[C@H](C)O)[C@H](C)O [D41(Lys13/Lys16)] | 0.4 | 0.4 | 0.8 | 13.7 µM and 39 µg/mL | 13.7 |  |  | 
5 | CC(=O)N[C@H](CCCCN)C(=O)N[C@H](CC(C)C)C(=O)N[C@H](CCN)C(=O)N[C@H](CO)C(=O)N[C@H](CC(C)C)C(=O)N[C@H](CC(C)C)C(=O)N[C@H](CCN)C(=O)N[C@@H](C(=O)N[C@H](CC(C)C)C(=O)N[C@H](CO)C(=O)N[C@H](C)C(=O)N[C@H](C)C(=O)N[C@H](CCCCN)C(=O)N[C@H](CCN)C(=O)N[C@H](CCN)C(=O)N[C@H](CCCCN)C(=O)N[C@H](CC(C)C)C(=O)N[C@H](C)C(=O)N[C@@H](C(=O)N[C@H](CC(C)C)C(=O)N[C@H](CC(C)C)C(=O)N[C@H](CCN)C(=O)N[C@H](C)C(=O)N[C@H](CC(C)C)C(=O)N[C@H](CO)C(=O)N[C@H](CO)C(N)=O)[C@H](C)O)[C@H](C)O [Peptide D104, Ac-KL(Dbu)SLL(Dbu)TLSAAK(Dbu)(Dbu)KLATLL(Dbu)ALSS-amide] (Ac-[dK][dL][dDab][dS][dL][dL][dDab][dT][dL][dS][dA][dA][dK][dDab][dDab][dK][dL][dA][dT][dL][dL][dDab][dA][dL][dS][dS]-NH2) |  |  |  |  |  | 59.2 | > 4000 µg/mL and > 1.49 mM | basically no hemolysis
6 | CC(=O)N[C@H](C)C(=O)N[C@H](CC(C)C)C(=O)N[C@H](CCCCN)C(=O)N[C@H](CCCCN)C(=O)N[C@H](CC(C)C)C(=O)N[C@H](CC(C)C)C(=O)N[C@H](CCCCN)C(=O)N[C@@H](C(=O)N[C@H](CC(C)C)C(=O)N[C@H](CO)C(=O)N[C@H](CCCCN)C(=O)N[C@H](C)C(=O)N[C@H](CCN)C(=O)N[C@H](C)C(=O)N[C@H](C)C(=O)N[C@H](CCN)C(=O)N[C@H](CC(C)C)C(=O)N[C@H](CCCCN)C(=O)N[C@@H](C(=O)N[C@H](CC(C)C)C(=O)N[C@H](CC(C)C)C(=O)N[C@H](CCCCN)C(=O)N[C@H](C)C(=O)N[C@H](CC(C)C)C(=O)N[C@H](CO)C(=O)N[C@H](CCCCN)C(N)=O)[C@H](C)O)[C@H](C)O [D41(Dbu13/Dbu16)] (Ac-[dA][dL][dK][dK][dL][dL][dK][dT][dL][dS][dK][dA][dDab][dA][dA][dDab][dL][dK][dT][dL][dL][dK][dA][dL][dS][dK]-NH2; N-terminus and C-terminus assumed) | 0.5 | 0.6 | 0.8 | 24.3 µM and 68 µg/mL | 24.3 |  |  | 
